Earlier results in US20010034023A1, “Gene sequence variations with utility in determining the treatment of disease, in genes relating to drug processing” (priority 1999, published 2001).
Counter-ions that a name gives are not always drawn.

How the values were obtained:
[1] = high dose
[2] = system: hepatitis C virus infection
[3] = PDR
[4] = not given; remark: listed apart in the source
[5] = Alzheimer's patients receiving Cognex

CC(=O)Nc1ccc(O)cc1 [Acetominophen]
dose required for significant liver injury to occur [1]: 10-15 grams

interferon alpha
patients in whom viral infection is completely and permanently eliminated [2]: less than a quarter of patients
patients receiving virtually no benefit [2]: Nearly half of patients

Nc1c2c(nc3ccccc13)CCCC2 [Cognex, tacrine hydrochloride]
patients showing no change or minimal worsening of their disease ([3]; Alzheimer's disease patients receiving Cognex): about 45%
patients minimally improved [3, 5]: About 58%
patients much improved [3, 5]: about 2%

NNC(=O)c1ccncc1 [INH, Isoniazid]
persons in whom subclinical liver injury occurs (persons taking INH): 10-20%
hepatotoxicity in slow acetylators (slow acetylators): more hepatotoxic

O=c1[nH]cc(F)c(=O)[nH]1 [5-fluorouracil]
patients with an objective response to the drug ([4]; advanced colorectal cancer): 20-40%
patients with a complete response (complete tumor disappearance) ([4]; advanced colorectal cancer, of the objective responders): 1-5%
patients suffering serious gastrointestinal or hematopoietic toxicity ([4]; up to, depending on the regimen): 20-30%
